Measured values from PubChem BioAssay AID2060341 (Molecular Pharmacology Branch, DTP, NCI, 2025).

System: 327498-153-R-J2-PDC multicell spheroid viability
Test: Anticancer human tumor 327498-153-R-J2-PDC patient-derived uterine carcinosarcoma cell line growth inhibition [IpAb]
Conditions: for IC50: curve of first compound; for viability, T/C: stronger effect = lower value
How it was run: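 Multi-cell spheroids of 60% tumour cells, 25% HUVEC and 15% MSC in ultra-low-attachment U-bottom wells, treated with agents combined with ipatasertib or abemaciclib. Half-log ranges top out near clinical Cmax, or 10 microM when Cmax is unknown.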
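Further: spheroids exposed to agents for 7 days.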
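Wherever viability, T/C is given: 100% = DMSO vehicle control viability.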

Cn1cnc2c(F)c(Nc3ccc(Br)cc3Cl)c(C(=O)NOCCO)cc21 + CC(C)NCC(C(=O)N1CCN(c2ncnc3c2C(C)CC3O)CC1)c1ccc(Cl)cc1
IC50 (second compound 0.1 µM): 427 nM
IC50 (second compound 0.316 µM): 61.2 nM
IC50 (second compound 1 µM): < 9.49 nM
IC50 (second compound 3.16 µM): < 9.49 nM
IC50 (second compound 10 µM): < 9.49 nM
viability, T/C (second compound 0.1 µM, first compound 0.00949 µM): 91.7%
viability, T/C (second compound 0.1 µM, first compound 0.03 µM): 69.9%
viability, T/C (second compound 0.1 µM, first compound 0.0949 µM): 66.2%
viability, T/C (second compound 0.1 µM, first compound 0.3 µM): 51.7%
viability, T/C (second compound 0.1 µM, first compound 0.949 µM): 46.1%
viability, T/C (second compound 0.1 µM, first compound 3 µM): 34.1%
viability, T/C (second compound 0.316 µM, first compound 0.00949 µM): 60.2%
viability, T/C (second compound 0.316 µM, first compound 0.03 µM): 51.6%
viability, T/C (second compound 0.316 µM, first compound 0.0949 µM): 48%
viability, T/C (second compound 0.316 µM, first compound 0.3 µM): 41.9%
viability, T/C (second compound 0.316 µM, first compound 0.949 µM): 29.7%
viability, T/C (second compound 0.316 µM, first compound 3 µM): 20.6%
viability, T/C (second compound 1 µM, first compound 0.00949 µM): 41.9%
viability, T/C (second compound 1 µM, first compound 0.03 µM): 34.6%
viability, T/C (second compound 1 µM, first compound 0.0949 µM): 32.9%
viability, T/C (second compound 1 µM, first compound 0.3 µM): 28.9%
viability, T/C (second compound 1 µM, first compound 0.949 µM): 20.4%
viability, T/C (second compound 1 µM, first compound 3 µM): 11.5%
viability, T/C (second compound 3.16 µM, first compound 0.00949 µM): 33.8%
viability, T/C (second compound 3.16 µM, first compound 0.03 µM): 27.2%
viability, T/C (second compound 3.16 µM, first compound 0.0949 µM): 21%
viability, T/C (second compound 3.16 µM, first compound 0.3 µM): 21%
viability, T/C (second compound 3.16 µM, first compound 0.949 µM): 13.3%
viability, T/C (second compound 3.16 µM, first compound 3 µM): 7.22%
viability, T/C (second compound 10 µM, first compound 0.00949 µM): 27.1%
viability, T/C (second compound 10 µM, first compound 0.03 µM): 22.4%
viability, T/C (second compound 10 µM, first compound 0.0949 µM): 16.3%
viability, T/C (second compound 10 µM, first compound 0.3 µM): 15.7%
viability, T/C (second compound 10 µM, first compound 0.949 µM): 12.2%
viability, T/C (second compound 10 µM, first compound 3 µM): 6.89%
